Results taken from ChEMBL document CHEMBL1133211, “Synthesis of feruloyl-myo-inositols and their inhibitory effects on superoxide generation” (2000).

Assays:
[1] = tested on: HL-60; experiment: Cell viability in TPA-induced superoxide (O2-) generation in human promyelocytic leukemia HL-60 cells, at 100 uM concentration; assay type: functional
[2] = tested on: HL-60; experiment: Inhibitory activity against TPA-induced superoxide (O2-) generation in human promyelocytic leukemia HL-60 cells, at 100 uM concentration; assay type: functional

Structure (SMILES)	Cell viability [1] [%]	inhibition at 100 µM [2] [%]
COc1cc(/C=C/C(=O)O[C@H]2[C@@H](O)[C@@H](O)[C@H](OC(=O)/C=C/c3ccc(OC(C)=O)c(OC)c3)[C@@H](O)[C@@H]2O)ccc1OC(C)=O	~72	~20
COc1cc(/C=C/C(=O)O[C@H]2[C@@H](O)[C@@H](O)[C@H](OC(=O)/C=C/c3ccc(O)c(OC)c3)[C@@H](O)[C@@H]2O)ccc1O	~80	~5
COc1cc(/C=C/C(=O)O[C@@H]2[C@H](O)[C@@H](O)[C@H](O)[C@@H](O)[C@@H]2OC(=O)/C=C/c2ccc(O)c(OC)c2)ccc1O	~80	~20
COc1cc(/C=C/C(=O)O[C@@H]2[C@H]3OC4(CCCCC4)O[C@@H]3[C@@H](OC(=O)/C=C/c3ccc(OC(C)=O)c(OC)c3)[C@@H]3OC4(CCCCC4)O[C@H]23)ccc1OC(C)=O	~60	~25
COC(=O)/C=C/c1ccc(O)c(OC)c1	~80	~2
COc1cc(/C=C/C(=O)O[C@@H]2[C@H](O)[C@H](OC(C)=O)[C@@H](OC(C)=O)[C@H](OC(C)=O)[C@H]2OC(C)=O)ccc1OC(C)=O	~45	~5
COc1cc(/C=C/C(=O)O[C@@H]2[C@H]3OC4(CCCCC4)O[C@@H]3[C@@H](OC(=O)/C=C/c3ccc(O)c(OC)c3)[C@@H]3OC4(CCCCC4)O[C@H]23)ccc1O	~60	~30
COc1cc(/C=C/C(=O)O)ccc1OC(C)=O	~82	~2
COc1cc(/C=C/C(=O)O[C@@H]2[C@H](OC(C)=O)[C@@H](OC(C)=O)[C@H](OC(C)=O)[C@@H](OC(C)=O)[C@@H]2OC(=O)/C=C/c2ccc(OC(C)=O)c(OC)c2)ccc1OC(C)=O	~60	~100
CCOC(=O)/C=C/c1ccc(O)c(OC)c1 [ETHYL FERULATE]	~80	~9
COc1cc(/C=C/C(=O)O)ccc1O [FERULATE]	~80	~12
